B1: Pseudomonas aeruginosa membrane histidine kinase BqsS/CarS, intact (enzyme)
chain: MRSIQRRLSVGLFAVLLVVGLVLAQTGLWLFDQGLRRYFAGNLREEAENLLVAMVRGPNGMQLDEQRLNPAFQRPYSGRYFVIELEKDTWRSRSLWDSELEVPHKKGLVQGLVDGPEEQRLLVFRGHYKRMGQKLRIVVAQDYTPILESFARVQWMGLGAGALALLLVLLLQRLTVRRSLRPLEEVRLQIAQLQQGQRSQLDNQAPEELEPLVEQINHLLAHTEETLKRSRNALGNLGHALKTPLAVLVSLAEREEMARQPELQQVLREQLEQIQQRLGRELGKARLVGEALPGAHFDCAEELPSLCDTLRLIHGPHLQVSWSAPPGLRLPWDREDLLEMLGNLLDNACKWADSEVRLTVAQGEGMVRLKVDDDGPGILPDQRQAVLERGTRLDEQVSGHGLGLGIARDIAEACGGRLSLEDSPLGGLRVSVELPLQKSGRAARA
notes: also called PaBqsS; intact PaBqsS; source: E. coli BL21 (DE3), membranes solubilized in detergent (Fos-Chol-14), purified (IMAC, TEV cleavage, second IMAC, SEC)

What was measured:
intact PaBqsS = target: T1, intact PaBqsS (Pseudomonas aeruginosa, UniProt Q9I0I2); conditions: 5.0 mM Mg2+, 37 °C, SEC buffer pH 7.5, Fos-Chol-14; no added Fe2+
T1 construct: gene carS

[1] = target: the molecule itself; assay: SEC; cleaved, purified PaBqsS in detergent (Fos-Chol-14, also glyco-diosgenin (GDN)); HiLoad 16/600 Superose 6 pg; 50 mM Tris pH 7.5, 100 mM NaCl, 1 mM TCEP, 5% glycerol, 0.02% Fos-Chol-14

Molecule	specific activity (intact PaBqsS)	stoichiometry N [1]
Nc1ncnc2c1ncn2[C@@H]1O[C@H](COP(=O)(O)OP(=O)(O)OP(=O)(O)O)[C@@H](O)[C@H]1O [ATP]	We then tested the ATPase activity of intact PaBqsS purified in Fos-Chol-14	
B1		2
